Test results taken from patent US8569336B2, “Compounds for the treatment of inflammatory disorders” (priority 2008, dated 2013).
Read-outs that look alike come from different tables or passages of the source.

Experiments:
[1] = tested on: TNF-α production from human whole blood; experiment: Inhibition of TNF-α production from human whole blood (hWBA), LPS stimulated, ELISA; type: cell-based; conditions: Homo sapiens, TNF-α by ELISA, read-out: hWBA (IC50)
[2] = Area under the curve determinations of plasma levels in rats (rrAUC), oral 10 mg/kg; type: in vivo; conditions: for AUC: rat, read-out: RR AUC (rapid rat AUC, rrAUC); for RR AUC (rapid rat AUC, rrAUC): blood collected 0.5-6 h post-dosing
[3] = molecular target: T1, purified catalytic domain of recombinant human TACE (rhTACEc) (Homo sapiens, UniProt P78536, N452Q/S266A); experiment: TACE kinetic assay: cleavage of internally quenched peptide substrate TNF-FRET 2 (Ki); type: biochemical; conditions: TNF-FRET 2 substrate
T1 construct: 6xHis (C); made in house; host or cells: baculovirus/Hi5 insect cells

[4] = 3.5 h, human whole blood diluted 1:1, LPS stimulated, 3.5 h
[5] = human whole blood diluted 1:1, LPS stimulated
[6] = LPS-stimulated human whole blood

T1 sequence (P78536 215-477 S266A/N452Q): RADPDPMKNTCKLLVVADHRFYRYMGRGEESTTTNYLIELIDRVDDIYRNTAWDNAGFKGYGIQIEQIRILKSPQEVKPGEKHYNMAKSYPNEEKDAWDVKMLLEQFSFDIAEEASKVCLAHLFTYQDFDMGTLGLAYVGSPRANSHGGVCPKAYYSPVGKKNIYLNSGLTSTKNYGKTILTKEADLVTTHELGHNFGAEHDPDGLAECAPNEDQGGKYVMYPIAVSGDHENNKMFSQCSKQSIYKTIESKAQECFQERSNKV

| Structure (SMILES) | IC50 [1, 4] [nM] | Ki ([3]; read-out: Ki) [nM] | IC50 [1, 6] [nM] | other results |
| --- | --- | --- | --- | --- |
| COc1ccc2c(c1)C(=O)N(C[C@@]1(c3cc4nc(-c5ccnn5C)ccc4o3)NC(=O)NC1=O)C2 [Compound 2116] | 1200 | – | – | AUC ([2]; plasma 0.5-6 h post-dosing): 5190 nM·h |
| COc1ccc2c(c1)C(=O)N(C[C@@]1(c3cc4nc(C(N)=O)ccc4o3)NC(=O)NC1=O)C2 [Compound 2457] | – | – | – | IC50 [1, 5]: 200 nM; RR AUC (rapid rat AUC, rrAUC) [2]: 113 nM·h |
| COc1ccc2c(c1F)C(=O)N(C[C@@]1(c3cc4nc(N5CCC(N(C)C)CC5)ccc4o3)NC(=O)NC1=O)C2 [Compound 1298] | 79 | – | – | AUC ([2]; plasma 0.5-6 h post-dosing): 37 nM·h |
| COc1ccc2c(c1)C(=O)N(C[C@@]1(c3cc4c(C#N)nccc4o3)NC(=O)NC1=O)C2 [Compound 2445] | – | – | – | IC50 [1, 5]: 1240 nM; RR AUC (rapid rat AUC, rrAUC) [2]: 485 nM·h |
| COc1ccc2c(c1)C(=O)N(C[C@@]1(c3cc4cc(-c5nnc[nH]5)ccc4o3)NC(=O)NC1=O)C2 [Compound 2184] | 347 | 0.355 | – | – |
| CCCN1CCC(c2nc3cc([C@]4(CN5Cc6ccc(OC)c(F)c6C5=O)NC(=O)NC4=O)oc3cc2F)CC1 [Compound 1324] | – | – | 248 | Ki ([3]; Ki): 0.58 nM |
| COc1ccc2c(c1F)C(=O)N(C[C@@]1(c3cc4nc(-c5cccc(C#N)c5)ccc4o3)NC(=O)NC1=O)C2 [Compound 1504] | – | 0.4 | 579 | – |
| COc1ccc2c(c1F)C(=O)N(C[C@@]1(c3cc4cc([C@]5(C)C(=O)NC(=O)N5C)c(F)cc4o3)NC(=O)NC1=O)C2 [Compound 1317] | – | 0.47 | 234 | – |
| COc1ccc2c(c1)C(=O)N(C[C@@]1(c3cc4ccc(C(=O)NC[C@@H](C)O)cc4o3)NC(=O)NC1=O)C2 [Compound 2416] | – | 0.56 | – | IC50 [1, 5]: 891 nM |
| COc1ccc2c(c1F)C(=O)N(C[C@@]1(c3cc4nc(N5CCNCC5)ccc4o3)NC(=O)NC1=O)C2 [Compound 1725] | – | 0.6 | 97 | – |
| COc1ccc2c(c1)C(=O)N(C[C@@]1(c3cc4c(C)nc(O)c(C(=O)O)c4o3)NC(=O)NC1=O)C2 [Compound 2436] | – | – | – | IC50 [1, 5]: 2390 nM; Ki ([3]; Ki): 2.41 nM |
| COc1ccc2c(c1F)C(=O)N(C[C@@]1(c3cc4cc5c(c(-c6cccnc6)c4o3)C(=O)NC5)NC(=O)NC1=O)C2 [Compound 1310] | – | – | – | AUC ([2]; plasma 0.5-6 h): 614 nM·h |
| COc1ccc2c(c1F)C(=O)N(C[C@@]1(c3ccco3)NC(=O)NC1=O)C2 [Compound 313] | – | 0.736 | 1790 | – |
| COc1ccc2c(c1)C(=O)N(C[C@@]1(c3cc4cc(C)c(S(N)(=O)=O)cc4o3)NC(=O)NC1=O)C2 [Compound 2479] | – | 0.36 | – | IC50 [1, 5]: 2080 nM |
| COc1ccc2c(c1)C(=O)N(C[C@@]1(c3cc4c(o3)CCN(CC(N)=O)C4)NC(=O)NC1=O)C2 [Compound 2268] | 252 | – | – | Ki ([3]; Ki): 0.702 nM |
| COc1ccc2c(c1)C(=O)N(C[C@@]1(c3cc4cc(C(=NO)N5CCCN(C)CC5)ccc4o3)NC(=O)NC1=O)C2 [Compound 2452] | – | 0.67 | – | IC50 [1, 5]: 350 nM |
| COc1ccc2c(c1)C(=O)N(C[C@@]1(c3cc4ccc(C(=O)O)cc4o3)NC(=O)NC1=O)C2 [Compound 2410] | – | 0.3 | – | IC50 [1, 5]: 591 nM |
| COc1ccc2c(c1)C(=O)N(C[C@@]1(c3cc4cc(CNC5CCCCC5)ccc4o3)NC(=O)NC1=O)C2 [Compound 2180] | 617 | 0.443 | – | – |
| COc1ccc2c(c1)C(=O)N(C[C@@]1(c3cc4nc(-c5ccc6nccn6c5)ccc4o3)NC(=O)NC1=O)C2 [Compound 2150] | 828 | 0.806 | – | – |
| COc1ccc2c(c1)C(=O)N(C[C@@]1(c3cc4[nH]c(=O)ccc4o3)NC(=O)NC1=O)C2 [Compound 2317] | – | 0.375 | – | IC50 [1, 5]: 542 nM |
| Cn1cc(-c2ccc3c(c2)C(=O)N(C[C@@]2(c4cc5ncccc5o4)NC(=O)NC2=O)C3)cn1 [Compound 1742] | – | 3.63 | 3720 | – |
| COc1ccc2c(c1)C(=O)N(C[C@@]1(c3cc4cc(-c5cncc(O)c5)ncc4o3)NC(=O)NC1=O)C2 [Compound 2244] | 365 | 0.35 | – | – |
| COc1ccc2c(c1)C(=O)N(C[C@@]1(c3cc4cc(CNc5ccccn5)ccc4o3)NC(=O)NC1=O)C2 [Compound 2181] | 1650 | 0.343 | – | – |
| COc1ccc2c(c1F)C(=O)N(C[C@@]1(c3cc4nc(N5CCCNCC5)ccc4o3)NC(=O)NC1=O)C2 [Compound 1712] | – | 0.83 | 189 | – |
| COc1ccc2c(c1F)C(=O)N(C[C@@]1(c3cc4c(Cl)nccc4o3)NC(=O)NC1=O)C2 [Compound 2216] | 313 | 0.41 | – | – |
| COc1ccc2c(c1F)C(=O)N(C[C@@]1(c3cc4nc(N(c5cn[nH]c5)C5CCN(C)CC5)ccc4o3)NC(=O)NC1=O)C2 [Compound 1717] | – | 0.62 | 183 | – |
| COc1ccc2c(c1)C(=O)N(C[C@@]1(c3cc4nc(-c5cnc(N6CCCC6)nc5)ccc4o3)NC(=O)NC1=O)C2 [Compound 1505] | – | 0.6 | 1290 | – |

| Structure (SMILES) | IC50 [1, 4] [nM] | Ki ([3]; read-out: Ki) [nM] | IC50 [1, 6] [nM] | other results |
| --- | --- | --- | --- | --- |
| COc1ccc2c(c1)C(=O)N(C[C@@]1(c3cc4nc(N(C)c5ccncc5)ccc4o3)NC(=O)NC1=O)C2 [Compound 2138] | 524 | 0.881 | – | – |
| CCNC(=O)Nc1ccc2oc([C@]3(CN4Cc5ccc(OC)cc5C4=O)NC(=O)NC3=O)cc2n1 [Compound 1939] | – | 1.12 | 671 | – |
| COc1ccc2c(c1)C(=O)N(C[C@@]1(c3cc4cnc(NC(C)C)nc4o3)NC(=O)NC1=O)C2 [Compound 2298] | – | 1.69 | – | IC50 [1, 5]: ≥ 1000 nM |
| COc1ccc2c(c1)C(=O)N(C[C@@]1(c3cc4c(-c5cn[nH]c5)nccc4o3)NC(=O)NC1=O)C2 [Compound 2283] | – | 0.185 | – | IC50 [1, 5]: 154 nM |
| COc1ccc2c(c1)C(=O)N(C[C@@]1(c3cc4cc(C(=O)NO)ccc4o3)NC(=O)NC1=O)C2 [Compound 2402] | – | 0.5 | – | IC50 [1, 5]: 256 nM |
| COc1ccc2c(c1)C(=O)N(C[C@@]1(c3cc4cc(C(=O)NCCN(C)CCNS(C)(=O)=O)c(F)cc4o3)NC(=O)NC1=O)C2 [Compound 1281] | 1100 | 0.83 | – | – |
| COc1ccc2c(c1)C(=O)N(C[C@@]1(c3ccc(-c4cnc(N5CCCC5)nc4)cc3)NC(=O)NC1=O)C2 [Compound 1503] | – | 2.4 | 7090 | – |
| COc1ccc2c(c1)C(=O)N(C[C@@]1(c3cc4cc(-c5c(N)noc5C)ccc4o3)NC(=O)NC1=O)C2 [Compound 2261] | 515 | 0.347 | – | – |
| COc1ccc2c(c1)C(=O)N(C[C@@]1(c3cc4cc(CC(N)=O)ccc4o3)NC(=O)NC1=O)C2 [Compound 2209] | 542 | 2.51 | – | – |
| COc1ccc2c(c1)C(=O)N(C[C@@]1(c3cc4cc(NS(C)(=O)=O)ccc4o3)NC(=O)NC1=O)C2 [Compound 2222] | 343 | 0.701 | – | – |
| COc1ccc2c(c1)C(=O)N(C[C@@]1(c3cc4nc(C5CC5)ccc4o3)NC(=O)NC1=O)C2 [Compound 1508] | – | 0.9 | 2430 | – |
| COc1ccc2c(c1)C(=O)N(C[C@@]1(c3cc4c(C(F)(F)F)nccc4o3)NC(=O)NC1=O)C2 [Compound 2270] | 1070 | 0.441 | – | – |
| COc1ccc2c(c1)C(=O)N(C[C@@]1(c3cc4c(C)ncc(C(=O)O)c4o3)NC(=O)NC1=O)C2 [Compound 2446] | – | 2.26 | – | IC50 [1, 5]: 1600 nM |
| CCCN1CC=C(c2nc3cc([C@]4(CN5Cc6ccc(OC)c(F)c6C5=O)NC(=O)NC4=O)oc3cc2F)CC1 [Compound 1322] | – | 0.51 | 96 | – |
| COc1ccc2c(c1)C(=O)N(C[C@@]1(c3cc4c(C)nc(O)c(C(N)=O)c4o3)NC(=O)NC1=O)C2 [Compound 2435] | – | 1.14 | – | IC50 [1, 5]: 504 nM |
| COc1ccc2c(c1)C(=O)N(C[C@]1(C3=CC(c4ccccc4)N(C)O3)NC(=O)NC1=O)C2 (some centres unmarked) [Compound 1526] | – | 2.5 | ≥ 100000 | – |
| COc1ccc2c(c1Cl)C(=O)N(C[C@@]1(c3cc4cnccc4o3)NC(=O)NC1=O)C2 [Compound 2306] | – | 0.57 | – | IC50 [1, 5]: 834 nM |
| COc1ccc2c(c1)C(=O)N(C[C@@]1(c3cc4cc(-c5cc(O)n[nH]5)cnc4o3)NC(=O)NC1=O)C2 [Compound 2275] | 491 | 1.08 | – | – |
| COc1ccc2c(c1)C(=O)N(C[C@@]1(c3cc4nc(N5CCCC5)ccc4o3)NC(=O)NC1=O)C2 [Compound 2106] | 669 | 0.422 | – | – |
| CCNc1nnc(-c2ccc3oc([C@]4(CN5Cc6ccc(OC)cc6C5=O)NC(=O)NC4=O)cc3n2)o1 [Compound 1906] | – | 0.77 | 606 | – |
| COc1ccc2c(c1)C(=O)N(C[C@@]1(c3cc4cc(-c5ccncc5)ccc4o3)NC(=O)NC1=O)C2 [Compound 2194] | 1170 | 0.741 | – | – |
| COc1ccc2c(c1F)C(=O)N(C[C@@]1(c3cc4ccc5c(c4o3)CNC5=O)NC(=O)NC1=O)C2 [Compound 2498] | – | 1.21 | – | IC50 [1, 5]: 166 nM |
| CN(C)C1CCN(c2ccc3oc(C4(CN5Cc6ccc(Cl)cc6C5=O)NC(=O)NC4=O)cc3n2)CC1 (centres unmarked) [Compound 1291] | 1400 | 1.33 | – | – |
| COc1ccc2c(c1)C(=O)N(C[C@@]1(c3cc4ncc(CO)cc4o3)NC(=O)NC1=O)C2 [Compound 2320] | – | 0.586 | – | IC50 [1, 5]: 609 nM |
| COc1ccc2c(c1F)C(=O)N(C[C@@]1(c3cc4cc(C)nc(C)c4o3)NC(=O)NC1=O)C2 [Compound 203] | – | 0.0608 | 943 | – |
| COc1ccc2c(c1)C(=O)N(C[C@@]1(c3cc4nc(-c5c(C)n[nH]c5C)ccc4o3)NC(=O)NC1=O)C2 [Compound 2101] | 203 | 0.14 | – | – |
| COC(=O)c1cnc2cc([C@]3(CN4Cc5ccc(OC)cc5C4=O)NC(=O)NC3=O)oc2c1 [Compound 1928] | – | 0.52 | 841 | – |
